In the supplement of paper PMC10307832:

Tests used:
Assay in all cases: relative viability (nuclei count vs DMSO), 5 days (fraction); higher = more cells survive
Sorafenib = compound: CNC(=O)c1cc(Oc2ccc(NC(=O)Nc3ccc(Cl)c(C(F)(F)F)c3)cc2)ccn1 [Sorafenib]
Summary of the method: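 Viability was read as treated-well nuclei divided by vehicle-well nuclei, using the median across plates. Lung cancer cell lines in 1536-well plates were kept overnight at 37 °C, pinned with five √10-spaced library-drug doses, and after 5 days were Hoechst-stained, imaged at 4× and counted in MetaXpress. Plates passed only with control CV below 25% and at least one doubling.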

Sorafenib + Pictilisib = compound: CNC(=O)c1cc(Oc2ccc(NC(=O)Nc3ccc(Cl)c(C(F)(F)F)c3)cc2)ccn1 [Sorafenib] + CS(=O)(=O)N1CCN(Cc2cc3nc(-c4cccc5[nH]ncc45)nc(N4CCOCC4)c3s2)CC1 [Pictilisib] (partner 1 µM)
Summary of the method: (§1)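 Cells from lung cancer lines were seeded into 1536-well plates and, one day later, dosed by pin tool. Treatments were either a single drug or a fixed dose of an anchor drug with five library-drug doses (not always all listed) in √10 steps. After 5 days, nuclei were stained in a one-step fixation (final 0.05% Triton X-100, 1% formaldehyde, 1 ug/ml Hoechst) and counted on 4× images, and relative viability is the treated-to-vehicle nuclei ratio, as the median of duplicate plates.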

Sorafenib + Foretinib = compound: CNC(=O)c1cc(Oc2ccc(NC(=O)Nc3ccc(Cl)c(C(F)(F)F)c3)cc2)ccn1 [Sorafenib] + COc1cc2c(Oc3ccc(NC(=O)C4(C(=O)Nc5ccc(F)cc5)CC4)cc3F)ccnc2cc1OCCCN1CCOCC1 [Foretinib] (partner 0.25 µM)
Summary of the method: as §1

Sorafenib + Navitoclax = compound: CNC(=O)c1cc(Oc2ccc(NC(=O)Nc3ccc(Cl)c(C(F)(F)F)c3)cc2)ccn1 [Sorafenib] + CC1(C)CCC(c2ccc(Cl)cc2)=C(CN2CCN(c3ccc(C(=O)NS(=O)(=O)c4ccc(N[C@H](CCN5CCOCC5)CSc5ccccc5)c(S(=O)(=O)C(F)(F)F)c4)cc3)CC2)C1 [Navitoclax] (partner 0.5 µM)
Summary of the method: as §1

Sorafenib + Linsitinib = compound: CNC(=O)c1cc(Oc2ccc(NC(=O)Nc3ccc(Cl)c(C(F)(F)F)c3)cc2)ccn1 [Sorafenib] + C[C@]1(O)C[C@@H](c2nc(-c3ccc4ccc(-c5ccccc5)nc4c3)c3c(N)nccn32)C1 [Linsitinib] (partner 1 µM)
Summary of the method: as §1

Sorafenib + Bortezomib = compound: CNC(=O)c1cc(Oc2ccc(NC(=O)Nc3ccc(Cl)c(C(F)(F)F)c3)cc2)ccn1 [Sorafenib] + CC(C)C[C@H](NC(=O)[C@H](Cc1ccccc1)NC(=O)c1cnccn1)B(O)O [Bortezomib] (partner 0.002 µM)
Summary of the method: as §1

Sorafenib + Crizotinib = compound: CNC(=O)c1cc(Oc2ccc(NC(=O)Nc3ccc(Cl)c(C(F)(F)F)c3)cc2)ccn1 [Sorafenib] + C[C@@H](Oc1cc(-c2cnn(C3CCNCC3)c2)cnc1N)c1c(Cl)ccc(F)c1Cl [Crizotinib] (partner 1 µM)
Summary of the method: as §1

Sorafenib + Lapatinib = compound: CNC(=O)c1cc(Oc2ccc(NC(=O)Nc3ccc(Cl)c(C(F)(F)F)c3)cc2)ccn1 [Sorafenib] + CS(=O)(=O)CCNCc1ccc(-c2ccc3ncnc(Nc4ccc(OCc5cccc(F)c5)c(Cl)c4)c3c2)o1 [Lapatinib] (partner 2 µM)
Summary of the method: as §1

Sorafenib + Olaparib = compound: CNC(=O)c1cc(Oc2ccc(NC(=O)Nc3ccc(Cl)c(C(F)(F)F)c3)cc2)ccn1 [Sorafenib] + O=C(c1cc(Cc2n[nH]c(=O)c3ccccc23)ccc1F)N1CCN(C(=O)C2CC2)CC1 [Olaparib] (partner 8 µM)
Summary of the method: as §1

Sorafenib + Alpelisib = compound: CNC(=O)c1cc(Oc2ccc(NC(=O)Nc3ccc(Cl)c(C(F)(F)F)c3)cc2)ccn1 [Sorafenib] + Cc1nc(NC(=O)N2CCC[C@H]2C(N)=O)sc1-c1ccnc(C(C)(C)C(F)(F)F)c1 [Alpelisib] (partner 2 µM)
Summary of the method: as §1

Sorafenib + Vorinostat = compound: CNC(=O)c1cc(Oc2ccc(NC(=O)Nc3ccc(Cl)c(C(F)(F)F)c3)cc2)ccn1 [Sorafenib] + O=C(CCCCCCC(=O)Nc1ccccc1)NO [Vorinostat] (partner 1 µM)
Summary of the method: as §1

For EBC-1, which relative viability (Sorafenib; 0.08 µM) is on record?
The relative viability was 1.05.

What about the relative viability (Sorafenib; 0.253 µM) of the same cell line?
Its relative viability is 0.904.

What about the relative viability (Sorafenib; 2.53 µM) of the same cell line?
Its relative viability is 0.929.

And the relative viability (Sorafenib; 8 µM)?
The relative viability was 0.812.

What about the relative viability (Sorafenib + Pictilisib; first compound 0.08 µM) of the same cell line?
Its relative viability is 0.371.

What about the relative viability (Sorafenib + Pictilisib; first compound 0.253 µM) of the same cell line?
Its relative viability is 0.419.

And the relative viability (Sorafenib + Pictilisib; first compound 2.53 µM)?
The relative viability was 0.355.

And the relative viability (Sorafenib + Pictilisib; first compound 8 µM)?
The relative viability was 0.287.

What about the relative viability (Sorafenib + Foretinib; first compound 0.08 µM) of the same cell line?
The relative viability was 0.092.

And the relative viability (Sorafenib + Foretinib; first compound 0.253 µM)?
The relative viability was 0.1.

And the relative viability (Sorafenib + Foretinib; first compound 2.53 µM)?
Its relative viability is 0.11.

What about the relative viability (Sorafenib + Foretinib; first compound 8 µM) of the same cell line?
Its relative viability is 0.114.

What about the relative viability (Sorafenib + Navitoclax; first compound 0.08 µM) of the same cell line?
Its relative viability is 0.568.

What about the relative viability (Sorafenib + Navitoclax; first compound 2.53 µM) of the same cell line?
The relative viability was 0.42.

And the relative viability (Sorafenib + Navitoclax; first compound 8 µM)?
Its relative viability is 0.451.

And the relative viability (Sorafenib + Linsitinib; first compound 0.253 µM)?
The relative viability was 0.732.

What about the relative viability (Sorafenib + Linsitinib; first compound 2.53 µM) of the same cell line?
The relative viability was 0.931.

And the relative viability (Sorafenib + Linsitinib; first compound 8 µM)?
Its relative viability is 0.625.

And the relative viability (Sorafenib + Bortezomib; first compound 0.08 µM)?
The relative viability was 0.575.

And the relative viability (Sorafenib + Bortezomib; first compound 0.253 µM)?
Its relative viability is 0.481.

What about the relative viability (Sorafenib + Bortezomib; first compound 2.53 µM) of the same cell line?
Its relative viability is 0.521.

And the relative viability (Sorafenib + Bortezomib; first compound 8 µM)?
The relative viability was 0.405.

And the relative viability (Sorafenib + Crizotinib; first compound 0.08 µM)?
The relative viability was 0.189.

And the relative viability (Sorafenib + Crizotinib; first compound 0.253 µM)?
The relative viability was 0.176.

And the relative viability (Sorafenib + Crizotinib; first compound 2.53 µM)?
Its relative viability is 0.202.

And the relative viability (Sorafenib + Crizotinib; first compound 8 µM)?
The relative viability was 0.203.

What about the relative viability (Sorafenib + Lapatinib; first compound 0.08 µM) of the same cell line?
The relative viability was 0.203.

And the relative viability (Sorafenib + Lapatinib; first compound 0.253 µM)?
The relative viability was 0.219.

And the relative viability (Sorafenib + Lapatinib; first compound 2.53 µM)?
The relative viability was 0.226.

And the relative viability (Sorafenib + Lapatinib; first compound 8 µM)?
Its relative viability is 0.208.

And the relative viability (Sorafenib + Olaparib; first compound 0.08 µM)?
Its relative viability is 0.717.

What about the relative viability (Sorafenib + Olaparib; first compound 0.253 µM) of the same cell line?
Its relative viability is 0.543.

And the relative viability (Sorafenib + Olaparib; first compound 2.53 µM)?
Its relative viability is 0.594.

What about the relative viability (Sorafenib + Olaparib; first compound 8 µM) of the same cell line?
The relative viability was 0.557.

What about the relative viability (Sorafenib + Alpelisib; first compound 0.08 µM) of the same cell line?
The relative viability was 0.875.

And the relative viability (Sorafenib + Alpelisib; first compound 0.253 µM)?
The relative viability was 0.769.

What about the relative viability (Sorafenib + Alpelisib; first compound 2.53 µM) of the same cell line?
Its relative viability is 0.89.

And the relative viability (Sorafenib + Alpelisib; first compound 8 µM)?
Its relative viability is 0.623.

Which relative viability (Sorafenib; 0.253 µM) does the source give for IA-LM here?
The relative viability was 0.646.

And the relative viability (Sorafenib; 2.53 µM)?
The relative viability was 0.563.

And the relative viability (Sorafenib; 8 µM)?
Its relative viability is 0.514.

What about the relative viability (Sorafenib + Pictilisib; first compound 0.08 µM) of the same cell line?
Its relative viability is 0.451.

What about the relative viability (Sorafenib + Pictilisib; first compound 0.253 µM) of the same cell line?
The relative viability was 0.37.

And the relative viability (Sorafenib + Pictilisib; first compound 2.53 µM)?
The relative viability was 0.311.

What about the relative viability (Sorafenib + Pictilisib; first compound 8 µM) of the same cell line?
The relative viability was 0.212.

What about the relative viability (Sorafenib + Foretinib; first compound 0.253 µM) of the same cell line?
Its relative viability is 0.624.

And the relative viability (Sorafenib + Foretinib; first compound 2.53 µM)?
The relative viability was 0.61.

What about the relative viability (Sorafenib + Foretinib; first compound 8 µM) of the same cell line?
The relative viability was 0.757.

And the relative viability (Sorafenib + Navitoclax; first compound 0.08 µM)?
Its relative viability is 0.579.

What about the relative viability (Sorafenib + Navitoclax; first compound 0.253 µM) of the same cell line?
The relative viability was 0.385.

And the relative viability (Sorafenib + Navitoclax; first compound 2.53 µM)?
Its relative viability is 0.488.

What about the relative viability (Sorafenib + Navitoclax; first compound 8 µM) of the same cell line?
Its relative viability is 0.438.

And the relative viability (Sorafenib + Linsitinib; first compound 0.08 µM)?
The relative viability was 0.456.

What about the relative viability (Sorafenib + Linsitinib; first compound 0.253 µM) of the same cell line?
Its relative viability is 0.281.

And the relative viability (Sorafenib + Linsitinib; first compound 2.53 µM)?
Its relative viability is 0.373.

And the relative viability (Sorafenib + Linsitinib; first compound 8 µM)?
Its relative viability is 0.436.

And the relative viability (Sorafenib + Bortezomib; first compound 0.08 µM)?
Its relative viability is 0.704.

And the relative viability (Sorafenib + Bortezomib; first compound 0.253 µM)?
Its relative viability is 0.363.

And the relative viability (Sorafenib + Bortezomib; first compound 2.53 µM)?
Its relative viability is 0.458.

And the relative viability (Sorafenib + Bortezomib; first compound 8 µM)?
Its relative viability is 0.408.

What about the relative viability (Sorafenib + Vorinostat; first compound 0.253 µM) of the same cell line?
The relative viability was 0.647.

And the relative viability (Sorafenib + Vorinostat; first compound 2.53 µM)?
Its relative viability is 0.436.

What about the relative viability (Sorafenib + Vorinostat; first compound 8 µM) of the same cell line?
Its relative viability is 0.508.

And the relative viability (Sorafenib + Crizotinib; first compound 0.08 µM)?
Its relative viability is 0.573.

And the relative viability (Sorafenib + Crizotinib; first compound 0.253 µM)?
The relative viability was 0.623.

And the relative viability (Sorafenib + Crizotinib; first compound 2.53 µM)?
The relative viability was 0.494.

What about the relative viability (Sorafenib + Crizotinib; first compound 8 µM) of the same cell line?
Its relative viability is 0.4.

And the relative viability (Sorafenib + Lapatinib; first compound 0.08 µM)?
Its relative viability is 0.491.

And the relative viability (Sorafenib + Lapatinib; first compound 0.253 µM)?
The relative viability was 0.358.

What about the relative viability (Sorafenib + Lapatinib; first compound 2.53 µM) of the same cell line?
The relative viability was 0.456.

What about the relative viability (Sorafenib + Lapatinib; first compound 8 µM) of the same cell line?
The relative viability was 0.446.

And the relative viability (Sorafenib + Olaparib; first compound 0.08 µM)?
The relative viability was 0.65.

And the relative viability (Sorafenib + Olaparib; first compound 0.253 µM)?
The relative viability was 0.601.

What about the relative viability (Sorafenib + Olaparib; first compound 2.53 µM) of the same cell line?
Its relative viability is 0.51.

And the relative viability (Sorafenib + Olaparib; first compound 8 µM)?
Its relative viability is 0.43.

And the relative viability (Sorafenib + Alpelisib; first compound 0.08 µM)?
The relative viability was 0.714.

And the relative viability (Sorafenib + Alpelisib; first compound 0.253 µM)?
The relative viability was 0.547.

What about the relative viability (Sorafenib + Alpelisib; first compound 2.53 µM) of the same cell line?
The relative viability was 0.431.

And the relative viability (Sorafenib + Alpelisib; first compound 8 µM)?
Its relative viability is 0.442.
